This test concerns the target T1, Recombinant human HSD17B13 enzyme (Homo sapiens, UniProt Q7Z5P4).
T1 sequence (Q7Z5P4 20-300): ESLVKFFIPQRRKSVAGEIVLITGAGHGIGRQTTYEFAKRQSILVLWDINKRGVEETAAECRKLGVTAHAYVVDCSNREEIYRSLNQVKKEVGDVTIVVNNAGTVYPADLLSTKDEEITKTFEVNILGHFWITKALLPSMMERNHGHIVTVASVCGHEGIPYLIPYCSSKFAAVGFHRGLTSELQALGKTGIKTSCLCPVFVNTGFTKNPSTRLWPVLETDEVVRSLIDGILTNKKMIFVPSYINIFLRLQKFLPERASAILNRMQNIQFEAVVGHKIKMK
The test is described as follows: HSD17b13 NAD(P)H-Glo biochemical assay. The note with it: 50 uM estradiol, 1 mM NAD+, NAD(P)H-Glo luminescence; read-out: HSD17β13 IC50. An outline of the steps:
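Recombinant human HSD17B13 in 20 mM Tris pH7.4 with 0.002% Tween-20 and 0.02% BSA was preincubated with inhibitor for 20 minutes at RT. The reaction ran 3 hours at 37° C with 50 uM estradiol and 1 mM NAD+ (final). NADH formed was detected by NAD(P)H-Glo luminescence after 1 hour at RT.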

Consider `Cn1nc(-c2cc(C(F)(F)F)c(F)c(O)c2F)c2cnc(N3CCN(S(C)(=O)=O)C4(CCCCC4)C3)nc21` [Compound 18.84, 2,6-Difluoro-3-(1-methyl-6-(1-(methylsulfony1)-1,4-diazaspiro[5.5]undecan-4-yl)-1H-pyrazolo[3,4-d]pyrimidin-3-y1)-5-(trifluoromethyl)phenol], for which the IC50 – broadly, the concentration that inhibits the measured activity by half – is less than 100 nM.

For `Cn1nc(-c2cc(C(F)(F)F)c(F)c(O)c2F)c2cnc(N3CCN(S(C)(=O)=O)C4(CCOCC4)C3)nc21` [Compound 18.85, 2,6-Difluoro-3-(1-methyl-6-(1-(methylsulfony1)-9-oxa-1,4-diazaspiro[5.5]undecan-4-y1)-1H-pyrazolo[3,4-d]pyrimidin-3-y1)-5-(trifluoromethyl)phenol], the IC50 was less than 100 nM.

On to `Cn1nc(-c2cc(C(F)(F)F)c(F)c(O)c2F)c2cnc(N3CCO[C@@H](c4ccccc4)C3)nc21` [Compound 18.86, (S)-2,6-Difluoro-3-(1-methyl-6-(2-phenylmorpholino)-1H-pyrazolo[3,4-d]pyrimidin-3-y1)-5-(trifluoromethyl)phenol], for which the IC50 is less than 100 nM.

In the case of `Cn1nc(-c2cc(C(F)(F)F)c(F)c(O)c2F)c2cnc(N3CCO[C@H](c4ccccc4)C3)nc21` [Compound 18.87, (R)-2,6-Difluoro-3-(1-methyl-6-(2-phenylmorpholino)-1H-pyrazolo[3,4-d]pyrimidin-3-y1)-5-(trifluoromethyl)phenol], the IC50 was less than 100 nM.

`Cn1nc(-c2cc(C(F)(F)F)c(F)c(O)c2F)c2cnc(N3CCC(O)(c4cccnc4)CC3)nc21` [Compound 18.88, 1-(3-(2,4-Difluoro-3-hydroxy-5-(trifluoromethyl)phenyl)-1-methyl-1H-pyrazolo[3,4-d]pyrimidin-6-yl)-4-(pyridin-3-yl)piperidin-4-ol]: the IC50 was less than 100 nM.

Turning to `CN1CC2(CCN(c3ncc4c(-c5cc(C(F)(F)F)c(F)c(O)c5F)nn(C)c4n3)CC2)OC1=O` [Compound 18.89, 8-(3-(2,4-Difluoro-3-hydroxy-5-(trifluoromethyl)phenyl)-1-methyl-1H-pyrazolo[3,4-d]pyrimidin-6-yl)-3-methyl-1-oxa-3,8-diazaspiro[4.5]decan-2-one], the IC50 was less than 100 nM.

In the case of `Cn1nc(-c2cc(C(F)(F)F)c(F)c(O)c2F)c2cnc(N3CCCC(c4cncnc4)C3)nc21` (stereo not drawn) [Compound 18.90, 2,6-Difluoro-3-(1-methyl-6-(3-(pyrimidin-5-y1)piperidin-1-yl)-1H-pyrazolo[3,4-d]pyrimidin-3-y1)-5-(trifluoromethyl)phenol], the IC50 is less than 100 nM.

`Cn1nc(-c2cc(C(F)(F)F)c(F)c(O)c2F)c2cnc(N3CCC(O)(CO)CC3)nc21` [Compound 18.91, 1-(3-(2,4-Difluoro-3-hydroxy-5-(trifluoromethyl)phenyl)-1-methyl-1H-pyrazolo[3,4-d]pyrimidin-6-yl)-4-(hydroxymethyl)piperidin-4-ol]: the IC50 was less than 100 nM.

Regarding `Cn1nc(-c2cc(C(F)(F)F)c(F)c(O)c2F)c2cnc(N3CCC4(CCO4)CC3)nc21` [Compound 18.92, 2,6-Difluoro-3-(1-methyl-6-(1-oxa-7-azaspiro[3.5]nonan-7-y1)-1H-pyrazolo[3,4-d]pyrimidin-3-y1)-5-(trifluoromethyl)phenol], the IC50 was less than 100 nM.

For `Cn1nc(-c2cc(C(F)(F)F)c(F)c(O)c2F)c2cnc(N3CCC(O)(C4CC4)CC3)nc21` [Compound 18.93, 4-Cyclopropyl-1-(3-(2,4-difluoro-3-hydroxy-5-(trifluoromethyl)phenyl)-1-methyl-1H-pyrazolo[3,4-d]pyrimidin-6-y1)piperidin-4-ol], the IC50 is less than 100 nM.

Turning to `CN1CCN(c2ncc3c(-c4cc(C(F)(F)F)c(F)c(O)c4F)nn(C)c3n2)CC1c1ccccc1` (stereo not drawn) [Compound 18.94, 2,6-Difluoro-3-(1-methyl-6-(4-methyl-3-phenylpiperazin-1-y1)-1H-pyrazolo[3,4-d]pyrimidin-3-yl)-5-(trifluoromethyl)phenol], the IC50 is less than 100 nM.

As to `Cn1nc(-c2cc(C(F)(F)F)c(F)c(O)c2F)c2cnc(N3CCOC4(CCOCC4)C3)nc21` [Compound 18.95, 2,6-Difluoro-3-(1-methyl-6-(1,9-dioxa-4-azaspiro[5.5]undecan-4-y1)-1H-pyrazolo[3,4-d]pyrimidin-3-y1)-5-(trifluoromethyl)phenol], the IC50 is less than 100 nM.

Take `Cn1nc(-c2cc(C(F)(F)F)c(F)c(O)c2F)c2cnc(N3CCC(O)(c4ccccn4)CC3)nc21` [Compound 18.96, 1-(3-(2,4-Difluoro-3-hydroxy-5-(trifluoromethyl)phenyl)-1-methyl-1H-pyrazolo[3,4-d]pyrimidin-6-yl)-4-(pyridin-2-y1)piperidin-4-ol]: the IC50 was less than 100 nM.

In the case of `Cn1nc(-c2cc(C(F)(F)F)c(F)c(O)c2F)c2cnc(N3CCC(O)(c4ccncc4)CC3)nc21` [Compound 18.97, 1-(3-(2,4-Difluoro-3-hydroxy-5-(trifluoromethyl)phenyl)-1-methyl-1H-pyrazolo[3,4-d]pyrimidin-6-yl)-4-(pyridin-4-yl)piperidin-4-ol], the IC50 is less than 100 nM.

As to `Cn1nc(-c2cc(C(F)(F)F)c(F)c(O)c2F)c2cnc(N3CCCCC3COc3ccccc3)nc21` (stereo not drawn) [Compound 18.98, 2,6-Difluoro-3-(1-methyl-6-(2-(phenoxymethyl)piperidin-1-yl)-1H-pyrazolo[3,4-d]pyrimidin-3-yl)-5-(trifluoromethyl)phenol], the IC50 was less than 100 nM.

For the molecule `Cn1nc(-c2cc(C(F)(F)F)c(F)c(O)c2F)c2cnc(N3CCC4(CCCO4)CC3)nc21` [Compound 18.99, 2,6-Difluoro-3-(1-methyl-6-(1-oxa-8-azaspiro[4.5]decan-8-yl)-1H-pyrazolo[3,4-d]pyrimidin-3-y1)-5-(trifluoromethyl)phenol], the IC50 is less than 100 nM.

Regarding `COC1(CO)CCN(c2ncc3c(-c4cc(C(F)(F)F)c(F)c(O)c4F)nn(C)c3n2)CC1` [Compound 18.100, 2,6-Difluoro-3-(6-(4-(hydroxymethyl)-4-methoxypiperidin-1-y1)-1-methyl-1H-pyrazolo[3,4-d]pyrimidin-3-yl)-5-(trifluoromethyl)phenol], the IC50 is less than 100 nM.

Take `CN1CCN(c2ncc3c(-c4cc(C(F)(F)F)c(F)c(O)c4F)nn(C)c3n2)CC1c1ncc[nH]1` (stereo not drawn) [Compound 18.101, 3-(6-(3-(1H-Imidazol-2-yl)-4-methylpiperazin-1-y1)-1-methyl-1H-pyrazolo[3,4-d]pyrimidin-3-yl)-2,6-difluoro-5-(trifluoromethyl)phenol]: the IC50 lay within 100 to 1000 nM.

Turning to `Cn1nc(-c2cc(C(F)(F)F)c(F)c(O)c2F)c2cnc(N3CCOCC3(C)C)nc21` [Compound 18.102, 3-(6-(3,3-Dimethylmorpholino)-1-methyl-1H-pyrazolo[3,4-d]pyrimidin-3-y1)-2,6-difluoro-5-(trifluoromethyl)phenol], the IC50 was less than 100 nM.

Consider `Cn1nc(-c2cc(C(F)(F)F)c(F)c(O)c2F)c2cnc(N3CCOC(C)(C)C3)nc21` [Compound 18.103, 3-(6-(2,2-Dimethylmorpholino)-1-methyl-1H-pyrazolo[3,4-d]pyrimidin-3-y1)-2,6-difluoro-5-(trifluoromethyl)phenol], for which the IC50 is less than 100 nM.

In the case of `Cn1nc(-c2cc(C(F)(F)F)c(F)c(O)c2F)c2cnc(N3CCOCC3C3CCC3)nc21` (stereo not drawn) [Compound 18.104, 3-(6-(3-Cyclobutylmorpholino)-1-methyl-1H-pyrazolo[3,4-d]pyrimidin-3-y1)-2,6-difluoro-5-(trifluoromethyl)phenol], the IC50 was less than 100 nM.

Take `Cn1nc(-c2cc(C(F)(F)F)c(F)c(O)c2F)c2cnc(N3CCOC4(CC4)C3)nc21` [Compound 18.105, 2,6-Difluoro-3-(1-methyl-6-(4-oxa-7-azaspiro[2.5]octan-7-y1)-1H-pyrazolo[3,4-d]pyrimidin-3-y1)-5-(trifluoromethyl)phenol]: the IC50 was less than 100 nM.

Consider `Cn1nc(-c2cc(C(F)(F)F)c(F)c(O)c2F)c2cnc(N3CCOC4(CCCC4)C3)nc21` [Compound 18.106, 2,6-Difluoro-3-(1-methyl-6-(6-oxa-9-azaspiro[4.5]decan-9-yl)-1H-pyrazolo[3,4-d]pyrimidin-3-y1)-5-(trifluoromethyl)phenol], for which the IC50 was less than 100 nM.

For `Cn1nc(-c2cc(C(F)(F)F)c(F)c(O)c2F)c2cnc(N3CCOCC3CC(F)(F)F)nc21` (stereo not drawn) [Compound 18.107, 2,6-Difluoro-3-(1-methyl-6-(3-(2,2,2-trifluoroethyl)morpholino)-1H-pyrazolo[3,4-d]pyrimidin-3-y1)-5-(trifluoromethyl)phenol], the IC50 is less than 100 nM.

For `Cn1nc(-c2cc(C(F)(F)F)c(F)c(O)c2F)c2cnc(N3CCC(C)(C)CC3)nc21` [Compound 18.108, 3-(6-(4,4-Dimethylpiperidin-1-yl)-1-methyl-1H-pyrazolo[3,4-d]pyrimidin-3-yl)-2,6-difluoro-5-(trifluoromethyl)phenol], the IC50 is less than 100 nM.

`Cn1nc(-c2cc(C(F)(F)F)c(F)c(O)c2F)c2cnc(N3CCN(S(C)(=O)=O)[C@@H](c4ccccc4)C3)nc21` [Compound 18.109, (S)-2,6-Difluoro-3-(1-methyl-6-(4-(methylsulfony1)-3-phenylpiperazin-1-y1)-1H-pyrazolo[3,4-d]pyrimidin-3-y1)-5-(trifluoromethyl)phenol]: the IC50 is less than 100 nM.

For the molecule `Cn1nc(-c2cc(C(F)(F)F)c(F)c(O)c2F)c2cnc(N3CC4CC3CN4S(C)(=O)=O)nc21` (stereo not drawn) [Compound 18.110, 2,6-Difluoro-3-(1-methyl-6-(5-(methylsulfony1)-2,5-diazabicyclo[2.2.1]heptan-2-y1)-1H-pyrazolo[3,4-d]pyrimidin-3-yl)-5-(trifluoromethyl)phenol], the IC50 was less than 100 nM.

Values taken from patent US20240083861A1, “HSD17B13 INHIBITORS AND USES THEREOF” (FL2022-001, Inc., priority 2020, published 2024).
